Test results as given in patent US12084485B2 (Intarcia Therapeutics, Inc., priority 2020, dated 2024).
Read-outs that look alike come from different tables or passages of the source.

How the values were obtained:
[1] = Acute food intake inhibition in Long Evans rats after bolus SC dosing (BioDAQ); type: in vivo, rat; conditions: 30 mcg SC bolus
[2] = Weight-loss efficacy in LE DIO rats after bolus SC dosing; type: in vivo, rat; conditions: male LE DIO rats, from baseline and vehicle control (ΔΔ %)
[3] = Body weight changes in LE rats after bolus SC dosing; type: in vivo, rat; conditions: 30 mcg/kg SC bolus
HbA1c = assay: Comparative in vivo HbA1c lowering potency, A120 vs semaglutide (28 days); parameters: species or system rat
[4] = Body composition in male ZDF rats; type: in vivo, rat; conditions: day 25
[5] = Comparative in vivo weight loss potency, A120 vs semaglutide, DIO rats (28 days); parameters: species or system rat
[6] = Body composition (quantitative magnetic resonance) in male LE DIO rats; type: in vivo, rat; conditions: day 26
[7] = cited from earlier work
[8] = Stability in DMSO or DI water at 37° C. (purity by LC/MS and HPLC); type: physicochemical
[9] = Solubility in saline or DI water at room temperature (visual inspection); type: physicochemical
[10] = ΔΔ % change in HbA1c in ZDF rat at day 27
[11] = ΔΔ % weight decrease in DIO rat at day 27
[12] = solute Saline, TFA salt unless indicated otherwise

CC[C@H](C)[C@@H]1NC(=O)[C@H](Cc2ccccc2)NC(=O)[C@H](CCCCN)NC(=O)[C@@H](NC(=O)[C@@H](NC(=O)[C@H](C)NC(=O)[C@H](CCC(=O)O)NC(=O)[C@H](CCCCNC(=O)CC[C@H](NC(=O)CC[C@H](NC(=O)COCCOCCNC(=O)CCCCCCCCCCCCCCCCCCC(=O)O)C(=O)O)C(=O)O)NC(=O)[C@H](CCC(=O)O)NC(=O)[C@H](Cc2ccc(O)cc2)NC(=O)[C@H](CCC(N)=O)NC(=O)[C@H](CCCCN)NC(=O)[C@H](CO)NC(=O)[C@@H](NC(=O)[C@H](CC(=O)O)NC(=O)[C@H](CO)NC(=O)[C@@H](NC(=O)[C@H](Cc2ccccc2)NC(=O)[C@@H](NC(=O)CNC(=O)[C@H](CCC(=O)O)NC(=O)C(C)(C)NC(=O)[C@@H](N)Cc2c[nH]cn2)[C@@H](C)O)[C@@H](C)O)C(C)C)C(C)C)CCCCNC(=O)CC[C@@H](C(=O)N[C@@H](Cc2c[nH]c3ccccc23)C(=O)N[C@@H](CC(C)C)C(=O)N[C@@H](CCCCN)C(=O)N[C@@H](CC(N)=O)C(=O)NCC(=O)NCC(=O)N2CCC[C@H]2C(=O)N[C@@H](CO)C(=O)N[C@@H](CO)C(=O)NCC(=O)N[C@@H](C)C(=O)N2CCC[C@H]2C(=O)N2CCC[C@H]2C(=O)N2CCC[C@H]2C(=O)N[C@@H](CO)C(N)=O)NC1=O [Compound A135]
% Food Intake Inhibition from Vehicle, 0-24 hr [1]: −52.6%
% Food Intake Inhibition from Vehicle, 25-48 hr [1]: −62.2%
% Food Intake Inhibition from Vehicle, 49-72 hr [1]: −29.4%
% Food Intake Inhibition from Vehicle, 73-96 hr [1]: −8.0%
DIO Weight Loss (30 mcg/kg SC bolus) % Weight change from Vehicle 2 d [2]: −3.7%
DIO Weight Loss (30 mcg/kg SC bolus) % Weight change from Vehicle 3 d [2]: −4.8%
DIO Weight Loss (30 mcg/kg SC bolus) % Weight change from Vehicle 4 d [2]: −4.3%
% Weight change from Vehicle, 1 d [3]: −4.3%
% Weight change from Vehicle, 2 d [3]: −7.4%
% Weight change from Vehicle, 3 d [3]: −6.4%
% Weight change from Vehicle, 4 d [3]: −4.2%

semaglutide
% Change HbA1c EC50 (HbA1c; [10]): 6 ng/mL
% Change HbA1c ED50 (HbA1c; [10]): 36 µg/kg/day
% Change HbA1c at 300 mcg/kg/day dose (HbA1c; ΔΔ % change in HbA1c in ZDF rat at day 27, 300 mcg/kg/day): 4.8%
changes in body composition [4]: primarily due to fat mass loss
% Weight loss EC50 [5, 11]: 3.9 ng/mL
% Weight loss ED50 [5, 11]: 23 µg/kg/day
% Weight loss at 300 mcg/kg/day dose ([5]; ΔΔ % weight decrease in DIO rat at day 27, 300 mcg/kg/day): 24%
changes in body composition [6]: primarily due to fat mass loss

human amylin: 37-residue polypeptide hormone co-secreted with insulin from pancreatic β-cells
half-life in serum [7]: about 13 minutes

CC[C@H](C)[C@H](NC(=O)[C@H](Cc1ccccc1)NC(=O)[C@H](CC(C)C)NC(=O)[C@H](CCCNC(=N)N)NC(=O)[C@@H](NC(=O)[C@H](C)NC(=O)[C@H](CCC(=O)O)NC(=O)[C@H](CCCCNC(=O)CC[C@H](NC(=O)COCCOCCNC(=O)CCCCCCCCCCCCCCCCCCC(=O)O)C(=O)O)NC(=O)[C@H](CCC(=O)O)NC(=O)[C@H](Cc1ccc(O)cc1)NC(=O)[C@H](CCC(N)=O)NC(=O)[C@H](CCCCN)NC(=O)[C@H](CO)NC(=O)[C@H](CC(C)C)NC(=O)[C@H](CC(=O)O)NC(=O)[C@H](CCC(=O)O)NC(=O)[C@@H](NC(=O)[C@H](Cc1ccccc1)NC(=O)[C@@H](NC(=O)CNC(=O)[C@H](CCC(=O)O)NC(=O)C(C)(C)NC(=O)[C@@H](N)Cc1c[nH]cn1)[C@@H](C)O)[C@@H](C)O)C(C)C)C(=O)N[C@@H](CO)C(=O)N[C@@H](Cc1c[nH]c2ccccc12)C(=O)N[C@@H](CC(C)C)C(=O)N[C@@H](CCCCN)C(=O)N[C@@H](CC(N)=O)C(=O)NCC(=O)NCC(=O)N1CCC[C@H]1C(=O)N[C@@H](CO)C(=O)N[C@@H](CO)C(=O)NCC(=O)N[C@@H](C)C(=O)N1CCC[C@H]1C(=O)N1CCC[C@H]1C(=O)N1CCC[C@H]1C(=O)N[C@@H](CO)C(N)=O [Compound A162]
Stability @ 37° C. (% purity) Day 14 ([8]; solute DI H2O, 37° C., TFA salt unless indicated otherwise): 96.6%
Stability @ RT (% purity) Day 0 ([8]; solute DI H2O, TFA salt unless indicated otherwise, 1 mg/ml): 95.8%
Stability @ RT (% purity) Day 14 ([8]; solute DI H2O, TFA salt unless indicated otherwise): 94.7%
Stability @ RT (% purity) Day 28 ([8]; solute DI H2O, Day 28, TFA salt unless indicated otherwise): 94.5%
Stability @ 37° C. (% purity) Day 14 ([8]; solute Saline, 37° C., TFA salt unless indicated otherwise): 96.7%
Appearance of stability sample (cloudy / particulates) ([8]; solute Saline, 37° C., Day 28): (c)
Stability @ 37° C. (% purity) Day 28 ([8]; solute Saline, 37° C., Day 28, TFA salt unless indicated otherwise): 85.5%
Stability @ RT (% purity) Day 0 [8, 12]: 97.9%
Stability @ RT (% purity) Day 14 [8, 12]: 93.7%
Stability @ RT (% purity) Day 28 ([8]; solute Saline, Day 28, TFA salt unless indicated otherwise): 94.9%
solubility ([9]; DI water, room temperature, as TFA salt unless indicated otherwise, read-out: Solubility (mg/mL) in DI water): > 101 mg/mL
solubility ([9]; saline, room temperature, as TFA salt unless indicated otherwise, read-out: Solubility (mg/mL) in saline): > 101 mg/mL

CC[C@H](C)[C@H](NC(=O)[C@H](Cc1ccccc1)NC(=O)[C@H](CCC(=O)O)NC(=O)[C@H](CCCNC(=N)N)NC(=O)[C@H](C)NC(=O)[C@H](C)NC(=O)[C@H](CCC(=O)O)NC(=O)[C@H](CCCCNC(=O)CC[C@H](NC(=O)CC[C@H](NC(=O)COCCOCCNC(=O)CC[C@H](NC(=O)CC[C@H](NC(=O)CCCCCCCCCCCCCCCCCCC(=O)O)C(=O)O)C(=O)O)C(=O)O)C(=O)O)NC(=O)[C@H](CCC(=O)O)NC(=O)[C@H](Cc1ccc(O)cc1)NC(=O)[C@H](CCC(N)=O)NC(=O)[C@H](CCC(=O)O)NC(=O)[C@H](CO)NC(=O)[C@@H](NC(=O)[C@H](CC(=O)O)NC(=O)[C@H](CO)NC(=O)[C@@H](NC(=O)[C@H](Cc1ccccc1)NC(=O)[C@@H](NC(=O)CNC(=O)[C@H](CCC(=O)O)NC(=O)C(C)(C)NC(=O)[C@@H](N)Cc1c[nH]cn1)[C@@H](C)O)[C@@H](C)O)[C@@H](C)CC)C(=O)N[C@@H](CCC(=O)O)C(=O)N[C@@H](Cc1c[nH]c2ccccc12)C(=O)N[C@@H](CC(C)C)C(=O)N[C@@H](CCCCN)C(=O)N[C@@H](CC(N)=O)C(=O)NCC(=O)NCC(=O)N1CCC[C@H]1C(=O)N[C@@H](CO)C(=O)N[C@@H](CO)C(=O)NCC(=O)N[C@@H](C)C(=O)N1CCC[C@H]1C(=O)N1CCC[C@H]1C(=O)N1CCC[C@H]1C(=O)N[C@@H](CO)C(N)=O [Compound A80]
solubility ([9]; Solubility (mg/mL) in DI water): > 78 mg/mL
solubility ([9]; Solubility (mg/mL) in saline): > 75 mg/mL

CC[C@H](C)[C@@H]1NC(=O)[C@H](Cc2ccccc2)NC(=O)[C@H](CCCCN)NC(=O)[C@@H](NC(=O)[C@H](C)NC(=O)[C@H](C)NC(=O)[C@H](CCC(=O)O)NC(=O)[C@H](CCCCNC(=O)CC[C@H](NC(=O)CC[C@H](NC(=O)COCCOCCNC(=O)CCCCCCCCCCCCCCCCCCC(=O)O)C(=O)O)C(=O)O)NC(=O)[C@H](CCC(=O)O)NC(=O)[C@H](Cc2ccc(O)cc2)NC(=O)[C@H](CCC(N)=O)NC(=O)[C@H](CCCCN)NC(=O)[C@H](CO)NC(=O)[C@@H](NC(=O)[C@H](CC(=O)O)NC(=O)[C@H](CO)NC(=O)[C@@H](NC(=O)[C@H](Cc2ccccc2)NC(=O)[C@@H](NC(=O)CNC(=O)[C@H](CCC(=O)O)NC(=O)C(C)(C)NC(=O)[C@@H](N)Cc2c[nH]cn2)[C@@H](C)O)[C@@H](C)O)C(C)C)CCCCNC(=O)CC[C@@H](C(=O)N[C@@H](Cc2c[nH]c3ccccc23)C(=O)N[C@@H](CC(C)C)C(=O)N[C@@H](CCCCN)C(=O)N[C@@H](CC(N)=O)C(=O)NCC(=O)NCC(=O)N2CCC[C@H]2C(=O)N[C@@H](CO)C(=O)N[C@@H](CO)C(=O)NCC(=O)N[C@@H](C)C(=O)N2CCC[C@H]2C(=O)N2CCC[C@H]2C(=O)N2CCC[C@H]2C(=O)N[C@@H](CO)C(N)=O)NC1=O [Compound A137]
% Food Intake Inhibition from Vehicle, 0-24 hr [1]: −67.0%
% Food Intake Inhibition from Vehicle, 25-48 hr [1]: −69.0%
% Food Intake Inhibition from Vehicle, 49-72 hr [1]: −25.7%
% Food Intake Inhibition from Vehicle, 73-96 hr [1]: −14.7%
DIO Weight Loss (30 mcg/kg SC bolus) % Weight change from Vehicle 2 d [2]: −3.0%
DIO Weight Loss (30 mcg/kg SC bolus) % Weight change from Vehicle 3 d [2]: −2.9%
DIO Weight Loss (30 mcg/kg SC bolus) % Weight change from Vehicle 4 d [2]: −2.7%
% Weight change from Vehicle, 1 d [3]: −4.7%
% Weight change from Vehicle, 2 d [3]: −6.6%
% Weight change from Vehicle, 3 d [3]: −6.0%
% Weight change from Vehicle, 4 d [3]: −4.8%
